Assay results: US20070254877A1, “Indole Derivative and Use for Treatment of Cancer” (Takada Pharmaceutical Company Limited, priority 2004, published 2007)
Where a name gives a salt, the structure may show the parent alone.

Target: T1, VEGFR2 intracellular domain protein (Homo sapiens, UniProt P35968)
T1 construct: made in house; host or cells: SF-21 insect cells infected with recombinant baculovirus BAC-VEGFR2
Assay: Determination of VEGF Receptor 2 Kinase (VEGFR2) inhibitory activity (AlphaScreen)
Type: biochemical
Settings: test compound at 1 μM; ATP 25 μM buffer, 25° C., 5 min; read-out: kinase inhibitory rate (%)
Procedure: Human VEGF receptor 2 (hereinafter to be abbreviated as VEGFR2) gene was cloned by PCR using cDNA Libraries Human Placenta (Clontech) as a template. The primer used for PCR was prepared from nucleotide sequence (Genbank Accession AF035121) information of VEGFR2 gene by adding a nucleotide sequence encoding flag peptide and a restriction enzyme recognition sequence to a nucleotide sequence (2671-4374 of Genbank Accession AF035121) encoding the VEGFR2 intracellular domain region, so that the protein contains an N-terminal flag tag. The primer nucleotide sequence is shown below.
SF-21 cells were sown at 1×10^6 cells/ml to Sf-900II SFM medium (1 L, Invitrogen) containing 10% fetal bovine serum (trace), 50 mg/L gentamicin (Invitrogen) and 0.1% Pluronic F-68 (Invitrogen), and shaking culture was performed using a 2 L volume Erlenmeyer flask at 27° C., 100 rpm. After culturing for 24 hrs, recombinant baculovirus BAC-VEGFR2 (13.4 mL) was added, and the mixture was further cultured for 3 days. The culture medium was centrifuged at 2,000 rpm for 5 min to give virus-infected cells. The infected cells were washed with a phosphate buffered saline (Invitrogen), centrifuged under the same conditions, and the cells were preserved at −80° C. The cryopreserved cells were thawed in ice, suspended in buffer A (50 mM Tris buffer (30 mL, pH 7.4) containing 20% glycerol, 0.15 M NaCl) supplemented with Complete Protease Inhibitor (Boehringer), and ruptured 3 times with a Polytron homogenizer (Kinematica) at 20,000 rpm for 30 sec. The rupture medium was clarified by centrifugation at 40,000 rpm for 30 min and filtered with a 0.45 μm filter. The filtrate was passed through a column packed with Anti-FLAG M2 Affinity Gel (4 mL, Sigma) at a flow rate of about 0.5 mL/min. The column was washed with buffer A, and eluted with buffer A containing 100 μg/mL of FLAG peptide. The eluate was concentrated with Vivaspin 20 (Vivascience) having a molecular weight cut off of 30K. The buffer of this concentrate was exchanged using NAP™ 25 column (Amersham Bioscience) equilibrated with buffer A. The fractions containing VEGFR2 intracellular domain protein were collected, glycerol was added to the final concentration of 50% and cryopreserved at −80° C.
A test compound dissolved in dimethyl sulfoxide (DMSO) was diluted with a buffer (50 mM Tris-HCl (pH 7.5), 5 mM MgCl2, 5 mM MnCl2, 2 mM dithiothreitol, 0.01% Tween-20). To this compound solution (5 μl) was added a buffer […] containing 50 ng/ml of VEGFR2 intracellular domain protein and 250 ng/ml of biotin labeled polypeptide biotinyl-poly-Glu:Tyr (4:1) (CIS bio International). To the obtained mixture was added a buffer (10 μl) containing ATP (25 μM), the mixture was allowed to react at 25° C. for 5 min and the reaction was quenched with 25 μl of a stop solution (100 mM EDTA disodium salt, 62.5 mM HEPES buffer (pH 7.4), 250 mM NaCl, 0.1% bovine serum albumin, 10 μg/ml AlphaScreen assay streptavidin donor beads (Streptavidin Donor beads: PerkinElmer), 10 μg/ml AlphaScreen assay anti-phosphotyrosine recognition antibody PY-100 binding acceptor beads (Anti-phosphotyrosine (P-Tyr-100) Acceptor beads: PerkinElmer)). The reaction solution was allowed to stand at 25° C. for 16 hrs, and the […] using a plate reader Fusion™ (manufactured by PerkinElmer). The kinase inhibitory rate (%) of the test compound was calculated by the following formula: Inhibitory rate (%)=(1−(count of test compound−blank)÷(control−blank))×100
The count of the solution reacted without addition of the compound was used as a “control”, and the count of the solution without the compound and ATP was used as a “blank”.

T1 sequence (P35968 786-1356 limits assumed): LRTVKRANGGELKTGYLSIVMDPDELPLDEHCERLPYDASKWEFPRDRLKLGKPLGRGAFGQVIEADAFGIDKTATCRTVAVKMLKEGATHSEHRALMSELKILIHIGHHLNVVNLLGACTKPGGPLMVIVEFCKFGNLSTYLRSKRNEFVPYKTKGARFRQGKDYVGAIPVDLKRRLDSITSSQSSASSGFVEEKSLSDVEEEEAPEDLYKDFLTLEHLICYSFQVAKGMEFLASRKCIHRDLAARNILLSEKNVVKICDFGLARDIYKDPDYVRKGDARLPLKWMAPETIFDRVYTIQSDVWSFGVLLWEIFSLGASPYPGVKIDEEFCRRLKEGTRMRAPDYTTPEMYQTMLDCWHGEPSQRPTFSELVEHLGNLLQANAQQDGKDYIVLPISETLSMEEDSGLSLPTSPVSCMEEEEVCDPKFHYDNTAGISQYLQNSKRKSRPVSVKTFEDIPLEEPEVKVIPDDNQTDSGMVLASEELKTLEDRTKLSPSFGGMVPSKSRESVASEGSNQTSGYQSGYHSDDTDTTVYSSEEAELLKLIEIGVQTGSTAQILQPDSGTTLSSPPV

SMILES | inhibition at 1 µM [%]
O=C(c1ccc2[nH]c3c(c2c1)CCCc1cn[nH]c1-3)N1CCC(N2CCCCCC2)CC1 [Example 11, 8-[(4-azepan-1-ylpiperidin-1-yl)carbonyl]-4,5,6,11-tetrahydro-1H-pyrazolo[4′,3′:6,7]cyclohepta[1,2-b]indole hydrochloride] | ≥ 90
O=C(c1ccc2[nH]c3c(c2c1)CCCc1cn[nH]c1-3)N1CCC(N2CCSCC2)CC1 [Example 15, 8-[(4-thiomorpholin-4-ylpiperidin-1-yl)carbonyl]-4,5,6,11-tetrahydro-1H-pyrazolo[4′,3′:6,7]cyclohepta[1,2-b]indole hydrochloride] | ≥ 90
O=C(c1ccc2[nH]c3c(c2c1)CCCc1cn[nH]c1-3)N1CCC(NCc2ccccc2)CC1 [Example 17, N-benzyl-1-(4,5,6,11-tetrahydro-1H-pyrazolo[4′,3′:6,7]cyclohepta[1,2-b]indol-8-ylcarbonyl)piperidin-4-amine hydrochloride] | ≥ 90
O=C(c1ccc2[nH]c3c(c2c1)CCCc1cn[nH]c1-3)N1CCC(O)(c2ccc(F)cc2)CC1 [Example 41, 4-(4-fluorophenyl)-1-(4,5,6,11-tetrahydro-1H-pyrazolo[4′,3′:6,7]cyclohepta[1,2-b]indol-8-ylcarbonyl)piperidin-4-ol] | ≥ 80
O=C(c1ccc2[nH]c3c(c2c1)CCCc1cn[nH]c1-3)N1CCC(O)(c2ccccc2F)CC1 [Example 43, 4-(2-fluorophenyl)-1-(4,5,6,11-tetrahydro-1H-pyrazolo[4′,3′:6,7]cyclohepta[1,2-b]indol-8-ylcarbonyl)piperidin-4-ol] | ≥ 80
O=C(c1ccc2[nH]c3c(c2c1)CCCc1cn[nH]c1-3)N1CCC(O)(c2ccc(Cl)cc2)CC1 [Example 44, 4-(4-chlorophenyl)-1-(4,5,6,11-tetrahydro-1H-pyrazolo[4′,3′:6,7]cyclohepta[1,2-b]indol-8-ylcarbonyl)piperidin-4-ol] | ≥ 80
O=C(c1ccc2[nH]c3c(c2c1)CCCc1cn[nH]c1-3)N1CCC(O)(c2ccccc2Cl)CC1 [Example 46, 4-(2-chlorophenyl)-1-(4,5,6,11-tetrahydro-1H-pyrazolo[4′,3′:6,7]cyclohepta[1,2-b]indol-8-ylcarbonyl)piperidin-4-ol] | ≥ 80

Further lines, results first:

inhibition at 1 µM [%] | SMILES
≥ 80 | O=C(c1ccc2[nH]c3c(c2c1)CCCc1cn[nH]c1-3)N1CCC(O)(c2cccc(F)c2)CC1 [Example 42, 4-(3-fluorophenyl)-1-(4,5,6,11-tetrahydro-1H-pyrazolo[4′,3′:6,7]cyclohepta[1,2-b]indol-8-ylcarbonyl)piperidin-4-ol]
≥ 80 | O=C(c1ccc2[nH]c3c(c2c1)CCCc1cn[nH]c1-3)N1CCC(O)(c2cccc(Cl)c2)CC1 [Example 45, 4-(3-chlorophenyl)-1-(4,5,6,11-tetrahydro-1H-pyrazolo[4′,3′:6,7]cyclohepta[1,2-b]indol-8-ylcarbonyl)piperidin-4-ol]
≥ 80 | O=C(c1ccc2[nH]c3c(c2c1)CCCc1cn[nH]c1-3)N1CCC(O)(c2ccc(C(F)(F)F)cc2)CC1 [Example 47, 1-(4,5,6,11-tetrahydro-1H-pyrazolo[4′,3′:6,7]cyclohepta[1,2-b]indol-8-ylcarbonyl)-4-[4-(trifluoromethyl)phenyl]piperidin-4-ol]
≥ 80 | O=C(c1ccc2[nH]c3c(c2c1)CCCc1cn[nH]c1-3)N1CCC(O)(c2cccc(C(F)(F)F)c2)CC1 [Example 48, 1-(4,5,6,11-tetrahydro-1H-pyrazolo[4′,3′:6,7]cyclohepta[1,2-b]indol-8-ylcarbonyl)-4-[3-(trifluoromethyl)phenyl]piperidin-4-ol]
≥ 80 | O=C(c1ccc2[nH]c3c(c2c1)CCCc1cn[nH]c1-3)N1CCC(O)(c2ccccc2C(F)(F)F)CC1 [Example 49, 1-(4,5,6,11-tetrahydro-1H-pyrazolo[4′,3′:6,7]cyclohepta[1,2-b]indol-8-ylcarbonyl)-4-[2-(trifluoromethyl)phenyl]piperidin-4-ol]
